In patent US10065941B2, “Aminotriazine derivative and pharmaceutical composition comprising the same” (Shionogi & Co., Ltd., priority 2013, dated 2018):

Biological target: human P2X3 receptor (Homo sapiens (Human), UniProt P56373)
Test: Evaluation of human P2X3 receptor inhibitory activity (Test Example 1)
Type: cell-based
Conditions: C6BU-1 cell transfected with human P2X3 receptor gene, FLIPR 384
Summary of the method: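 C6BU-1 cells stably expressing human P2X3, loaded with 4 μM Fluo-3-AM 1 h at 37 °C, preincubated 5 min with test compound, then stimulated with 150 nM ATP solution (stock, pre-dispense) and monitored by FLIPR for 4 min. IC50 derived from maximum fluorescence ratio (post-ATP peak over baseline).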

Chain of human P2X3 receptor (P56373 whole entry): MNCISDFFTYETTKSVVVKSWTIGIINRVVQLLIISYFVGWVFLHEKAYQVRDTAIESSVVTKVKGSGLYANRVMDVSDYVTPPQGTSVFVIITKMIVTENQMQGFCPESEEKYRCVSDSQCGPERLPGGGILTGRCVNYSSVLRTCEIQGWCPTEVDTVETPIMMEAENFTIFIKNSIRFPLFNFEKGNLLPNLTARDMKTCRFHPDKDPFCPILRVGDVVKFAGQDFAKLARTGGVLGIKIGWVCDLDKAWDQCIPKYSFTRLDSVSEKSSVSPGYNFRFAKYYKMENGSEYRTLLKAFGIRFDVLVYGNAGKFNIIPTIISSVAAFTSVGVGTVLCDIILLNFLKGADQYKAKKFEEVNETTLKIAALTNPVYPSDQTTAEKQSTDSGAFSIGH

SMILES | IC50 [nM]
COC(=O)[C@@H](C)Cn1c(=O)[nH]/c(=N\c2ccc(Oc3ccc(F)cn3)cc2)n(Cc2ccc(Cl)s2)c1=O [Compound I-272] | 8
C[C@@H](Cn1c(=O)[nH]/c(=N\c2ccc(Oc3ccccn3)cc2)n(Cc2ccc(Cl)s2)c1=O)C(=O)O [Compound I-273] | 5
C[C@@H](Cn1c(=O)[nH]/c(=N\c2ccc(Oc3ccc(F)cn3)cc2)n(Cc2ccc(Cl)s2)c1=O)C(=O)O [Compound I-274] | 5
CCc1ccc(Oc2ccc(/N=c3\[nH]c(=O)n(C[C@H](C)C(=O)O)c(=O)n3Cc3ccc(C)cc3)cc2)nc1 [Compound I-275] | 4
Cc1cc(/N=c2\[nH]c(=O)n(C[C@H](C)C(=O)O)c(=O)n2Cc2ccc(Cl)s2)ccc1Oc1ncccc1F [Compound I-276] | 19
CC(C)(C)n1c(=O)[nH]/c(=N\c2ccc(Oc3ccc(-c4cccc(C(=O)O)c4)cn3)cc2)n(Cc2ccc(Cl)cc2)c1=O [Compound R-001] | 7
COC(=O)c1cccc(-c2ccc(Oc3ccc(/N=c4\[nH]c(=O)[nH]c(=O)n4Cc4ccc(Cl)cc4)cc3)nc2)c1 [Compound R-002] | 363
O=C(O)c1cccc(-c2ccc(Oc3ccc(/N=c4\[nH]c(=O)[nH]c(=O)n4Cc4ccc(Cl)cc4)cc3)nc2)c1 [Compound R-003] | 4
COC(=O)c1ccc(NC(=O)c2cccc(Oc3ccc(/N=c4\[nH]c(=O)n(C)c(=O)n4C[C@H]4CC[C@H](C)CC4)cc3)n2)cc1 [Compound R-004] | 123
CCn1c(=O)[nH]/c(=N\c2ccc(-c3ccc(C#N)cn3)cc2)n(Cc2ccc(Cl)cc2)c1=O [Compound R-005] | 608
Cn1c(=O)[nH]/c(=N\c2ccc(Oc3cccc(C(=O)Nc4ccc(C(=O)O)cc4)n3)cc2)n(C[C@H]2CC[C@H](C)CC2)c1=O [Compound R-006] | 4
CCn1c(=O)nc(Nc2ccc3nc(C(C)C)oc3c2)n(Cc2ccc(Cl)cc2)c1=O [Compound R-007] | 301
COc1nccc(Oc2ccc(/N=c3\[nH]c(=O)n([C@@H](C)[C@@H](C)C(=O)O)c(=O)n3Cc3ccc(Cl)cc3)cc2)n1 [Compound R-010] | 10
CC(C)n1c(=O)[nH]/c(=N\c2ccc(Oc3cccc(C#N)n3)c(Cl)c2)n(Cc2ccc(Cl)cc2)c1=O [Compound R-011] | 49
CC(C)n1c(=O)[nH]/c(=N\c2ccc(Oc3cccc(C(=O)O)n3)c(Cl)c2)n(Cc2ccc(Cl)cc2)c1=O [Compound R-012] | 5
COC(=O)[C@@H](C)Cn1c(=O)[nH]/c(=N\c2ccc(Oc3cnc(Cl)cn3)cc2)n(Cc2ccc(Cl)cc2)c1=O [Compound R-013] | 6
C[C@@H](Cn1c(=O)[nH]/c(=N\c2ccc(Oc3cnc(Cl)cn3)cc2)n(Cc2ccc(Cl)cc2)c1=O)C(=O)O [Compound R-014] | 5
CCOC(=O)c1cnc(Oc2ccc(/N=c3\[nH]c(=O)n(CC)c(=O)n3Cc3ccc(Cl)cc3)cc2)c(Cl)c1 [Compound R-015, 1-(4-chlorobenzyl)-6-[4-(3-chloro-5-ethoxycarbonyl-2-pyridyloxy)phenylimino]-3-ethyl-1,3,5-triazinane-2,4-dione] | 104
CCn1c(=O)[nH]/c(=N\c2ccc(Oc3ncc(C(=O)O)cc3Cl)cc2)n(Cc2ccc(Cl)cc2)c1=O [Compound R-016, 1-(4-chlorobenzyl)-6-[4-(3-chloro-5-hydroxycarbonyl-2-pyridyloxy)phenylimino]-3-ethyl-1,3,5-triazinane-2,4-dione] | 6
COC(=O)[C@@H](C)Cn1c(=O)[nH]/c(=N\c2ccc(Oc3cnccn3)cc2)n(Cc2ccc(Cl)cc2)c1=O [Compound R-017] | 6

SMILES | IC50 [nM]
C[C@@H](Cn1c(=O)[nH]/c(=N\c2ccc(Oc3cnccn3)cc2)n(Cc2ccc(Cl)cc2)c1=O)C(=O)O [Compound R-019] | 6
CC(C)(Cn1c(=O)[nH]/c(=N\c2ccc(Oc3cnccn3)cc2)n(Cc2ccc(Cl)cc2)c1=O)C(=O)O [Compound R-020] | 13
CC(C)Oc1ccc(/N=c2\[nH]c(=O)n([C@H]3C[C@H](C(=O)O)C3)c(=O)n2Cc2ccc(Cl)cc2)cc1Cl [Compound R-021] | 15
CC(C)Oc1ccc(/N=c2\[nH]c(=O)n([C@H]3C[C@@H](C(=O)O)C3)c(=O)n2Cc2ccc(Cl)cc2)cc1Cl [Compound R-022] | 12
CCc1oc2ccc(/N=c3\[nH]c(=O)n([C@H]4C[C@H](C(=O)O)C4)c(=O)n3Cc3ccc(Cl)cc3)cc2c1C [Compound R-023] | 21
CCc1oc2ccc(/N=c3\[nH]c(=O)n([C@H]4C[C@@H](C(=O)O)C4)c(=O)n3Cc3ccc(Cl)cc3)cc2c1C [Compound R-024] | 18
COC(=O)C(C)(C)Cn1c(=O)[nH]/c(=N\c2ccc(Oc3cnc(Cl)cn3)cc2)n(Cc2ccc(Cl)cc2)c1=O [Compound R-025] | 5
COC(=O)C(C)Cn1c(=O)[nH]/c(=N\c2ccc(Oc3ccc(OC(F)F)cn3)cc2)n(Cc2ccc(Cl)cc2)c1=O (stereo not shown) [Compound R-026] | 8
CC(C)(Cn1c(=O)[nH]/c(=N\c2ccc(Oc3cnc(Cl)cn3)cc2)n(Cc2ccc(Cl)cc2)c1=O)C(=O)O [Compound R-027] | 6
COC(=O)[C@@H](C)Cn1c(=O)[nH]/c(=N\c2ccc(Oc3ccc(C(F)(F)F)nn3)cc2)n(Cc2ccc(Cl)cc2)c1=O [Compound R-028] | 7
COC(=O)C(C)(C)Cn1c(=O)[nH]/c(=N\c2ccc(Oc3ccc(C(F)(F)F)nn3)cc2)n(Cc2ccc(Cl)cc2)c1=O [Compound R-029] | 7
C[C@@H](Cn1c(=O)[nH]/c(=N\c2ccc(Oc3ccc(C(F)(F)F)nn3)cc2)n(Cc2ccc(Cl)cc2)c1=O)C(=O)O [Compound R-030] | 8
CC(C)(Cn1c(=O)[nH]/c(=N\c2ccc(Oc3ccc(C(F)(F)F)nn3)cc2)n(Cc2ccc(Cl)cc2)c1=O)C(=O)O [Compound R-031] | 12
COc1cc(Oc2ccc(/N=c3\[nH]c(=O)n(C[C@H](C)C(=O)O)c(=O)n3Cc3ccc(Cl)cc3)cc2)ccn1 [Compound R-032] | 4
COC(=O)[C@@H](C)Cn1c(=O)[nH]/c(=N\c2ccc(Oc3cccnn3)c(F)c2)n(Cc2ccc(Cl)cc2)c1=O [Compound R-033] | 6
COC(=O)C(C)(C)Cn1c(=O)[nH]/c(=N\c2ccc(Oc3cccnn3)c(F)c2)n(Cc2ccc(Cl)cc2)c1=O [Compound R-034] | 5
COC(=O)[C@@H](C)Cn1c(=O)[nH]/c(=N\c2ccc(Oc3cnc(C(F)(F)F)cn3)cc2)n(Cc2ccc(Cl)cc2)c1=O [Compound R-035] | 8
COC(=O)C(C)(C)Cn1c(=O)[nH]/c(=N\c2ccc(Oc3cnc(C(F)(F)F)cn3)cc2)n(Cc2ccc(Cl)cc2)c1=O [Compound R-036] | 11
C[C@@H](Cn1c(=O)[nH]/c(=N\c2ccc(Oc3cccnn3)c(F)c2)n(Cc2ccc(Cl)cc2)c1=O)C(=O)O [Compound R-037] | 7
CC(C)(Cn1c(=O)[nH]/c(=N\c2ccc(Oc3cccnn3)c(F)c2)n(Cc2ccc(Cl)cc2)c1=O)C(=O)O [Compound R-038] | 7

SMILES | IC50 [nM]
C[C@@H](Cn1c(=O)[nH]/c(=N\c2ccc(Oc3cnc(C(F)(F)F)cn3)cc2)n(Cc2ccc(Cl)cc2)c1=O)C(=O)O [Compound R-039] | 6
COC(=O)[C@@H](C)Cn1c(=O)[nH]/c(=N\c2ccc(Oc3cc(F)nc(F)c3)cc2)n(Cc2ccc(Cl)cc2)c1=O [Compound R-040] | 7
COC(=O)C(C)(C)Cn1c(=O)[nH]/c(=N\c2ccc(Oc3cc(F)nc(F)c3)cc2)n(Cc2ccc(Cl)cc2)c1=O [Compound R-041] | 11
COC(=O)[C@@H](C)Cn1c(=O)[nH]/c(=N\c2ccc(Oc3ccnc(C)n3)cc2)n(Cc2ccc(Cl)cc2)c1=O [Compound R-042] | 5
COC(=O)C(C)(C)Cn1c(=O)[nH]/c(=N\c2ccc(Oc3ccnc(C)n3)cc2)n(Cc2ccc(Cl)cc2)c1=O [Compound R-043] | 5
Cc1nccc(Oc2ccc(/N=c3\[nH]c(=O)n(C[C@H](C)C(=O)O)c(=O)n3Cc3ccc(Cl)cc3)cc2)n1 [Compound R-044] | 10
Cc1nccc(Oc2ccc(/N=c3\[nH]c(=O)n(CC(C)(C)C(=O)O)c(=O)n3Cc3ccc(Cl)cc3)cc2)n1 [Compound R-045] | 14
COC(=O)[C@@H](C)Cn1c(=O)[nH]/c(=N\c2ccc(Oc3cc(Cl)ncn3)cc2)n(Cc2ccc(Cl)cc2)c1=O [Compound R-046] | 6
COC(=O)C(C)(C)Cn1c(=O)[nH]/c(=N\c2ccc(Oc3cc(Cl)ncn3)cc2)n(Cc2ccc(Cl)cc2)c1=O [Compound R-047] | 9
COC(=O)[C@@H](C)Cn1c(=O)[nH]/c(=N\c2ccc(Oc3cnccn3)c(F)c2)n(Cc2ccc(Cl)cc2)c1=O [Compound R-048] | 6
COC(=O)C(C)(C)Cn1c(=O)[nH]/c(=N\c2ccc(Oc3cnccn3)c(F)c2)n(Cc2ccc(Cl)cc2)c1=O [Compound R-049] | 8
COc1cc(Oc2ccc(/N=c3\[nH]c(=O)n(C[C@H](C)C(=O)O)c(=O)n3Cc3ccc(Cl)cc3)cc2)ncn1 [Compound R-050] | 14
CCOC(=O)c1cnc(Oc2ccc(/N=c3\[nH]c(=O)n(CC)c(=O)n3Cc3ccc(Cl)cc3)cc2)cc1Cl [Compound R-053] | 52
CCn1c(=O)[nH]/c(=N\c2ccc(Oc3cc(Cl)c(C(=O)O)cn3)cc2)n(Cc2ccc(Cl)cc2)c1=O [Compound R-054] | 26
C[C@@H](Cn1c(=O)[nH]/c(=N\c2ccc(Oc3cnccn3)c(F)c2)n(Cc2ccc(Cl)cc2)c1=O)C(=O)O [Compound R-055] | 7
CC(C)(Cn1c(=O)[nH]/c(=N\c2ccc(Oc3cnccn3)c(F)c2)n(Cc2ccc(Cl)cc2)c1=O)C(=O)O [Compound R-056] | 10
C[C@@H](Cn1c(=O)[nH]/c(=N\c2ccc(Oc3cc(F)nc(F)c3)cc2)n(Cc2ccc(Cl)cc2)c1=O)C(=O)O [Compound R-057] | 6
COc1cc(Oc2ccc(/N=c3\[nH]c(=O)n(C[C@H](C)C(=O)O)c(=O)n3Cc3ccc(Cl)cc3)cc2)cc(F)n1 [Compound R-058] | 4
